The record followed here is patent US6642251B1, “Geometrically restricted 2-indolinone derivatives as modulators of protein kinase activity” (Sugen, Inc., priority 1998, dated 2003).

Some results are limits rather than exact numbers.

The target in one test is Pyk2 (Homo sapiens, UniProt Q14289). As to the kind of experiment: Pyk2 assay. As to Pyk2, outcome of primary assay: key: DNH = did not hit in primary assay. In kind it is biochemical.
For another test, the target named is EGFR (Homo sapiens, UniProt P00533). As to the kind of experiment: Biochemical EGFR assay (bio EGFR), ELISA. Also noted: A431 cell lysate (Screening Lab, SUGEN, Inc.); endogenous in cells; host or cells: A431. The conditions noted are these: 50% inhibition of target PTK activity; read-out: bio EGFR (Page 5) IC50. Here is the method: This assay measures the in vitro kinase activity of EGFR using ELISA.
Chain of EGFR (P00533 25-1210): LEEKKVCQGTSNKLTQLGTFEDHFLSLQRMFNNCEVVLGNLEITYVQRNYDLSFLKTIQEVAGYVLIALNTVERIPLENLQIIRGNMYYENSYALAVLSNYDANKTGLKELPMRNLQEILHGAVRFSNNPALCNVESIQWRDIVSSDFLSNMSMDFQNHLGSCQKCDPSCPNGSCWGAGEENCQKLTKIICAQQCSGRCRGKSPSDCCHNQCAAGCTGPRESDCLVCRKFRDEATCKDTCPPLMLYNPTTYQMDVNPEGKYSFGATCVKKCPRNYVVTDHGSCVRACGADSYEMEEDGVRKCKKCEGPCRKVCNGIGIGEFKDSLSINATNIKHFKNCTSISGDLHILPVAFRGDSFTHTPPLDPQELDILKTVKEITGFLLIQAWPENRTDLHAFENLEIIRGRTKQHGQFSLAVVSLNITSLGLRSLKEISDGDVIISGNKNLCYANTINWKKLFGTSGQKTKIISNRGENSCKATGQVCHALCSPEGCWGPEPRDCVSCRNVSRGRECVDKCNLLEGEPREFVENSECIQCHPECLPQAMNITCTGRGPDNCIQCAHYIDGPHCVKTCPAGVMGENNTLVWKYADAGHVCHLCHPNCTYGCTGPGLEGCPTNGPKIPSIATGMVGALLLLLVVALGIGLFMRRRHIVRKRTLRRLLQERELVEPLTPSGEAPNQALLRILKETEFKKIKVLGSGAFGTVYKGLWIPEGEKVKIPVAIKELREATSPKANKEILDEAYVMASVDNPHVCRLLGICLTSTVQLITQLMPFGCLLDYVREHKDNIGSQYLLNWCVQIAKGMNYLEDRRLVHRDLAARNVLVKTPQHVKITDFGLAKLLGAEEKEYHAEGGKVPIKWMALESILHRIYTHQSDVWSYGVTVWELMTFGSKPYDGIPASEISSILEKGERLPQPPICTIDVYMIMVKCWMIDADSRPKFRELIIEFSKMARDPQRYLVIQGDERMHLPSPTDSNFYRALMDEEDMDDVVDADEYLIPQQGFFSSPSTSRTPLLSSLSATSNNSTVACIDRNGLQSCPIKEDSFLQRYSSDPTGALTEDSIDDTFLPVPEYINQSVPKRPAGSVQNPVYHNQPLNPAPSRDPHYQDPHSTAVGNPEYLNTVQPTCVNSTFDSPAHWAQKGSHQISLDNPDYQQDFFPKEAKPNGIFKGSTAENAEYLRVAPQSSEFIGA
6. A431 cell lysate (Screening Lab, SUGEN, Inc.)
1. Coat Corning 96 well ELISA plates with 0.5 μg […] in
100 μl PBS per well, store overnight at 4° C.
2. Remove unbound SUMO1 from wells by inverting plate to remove liquid. Wash 1× with dH2O. Pat the plate on a paper towel to remove excess liquid.
(§1) 3. Add 150 μl of Blocking Buffer to each well. Incubate for 30 min. at room temperature with shaking.
(§2) 4. Wash plate 3× with deionized water, then once with TBST. Pat plate on a paper towel to remove excess liquid and bubbles.
5. Dilute lysate in PBS (7 μg lysate/100 μl PBS).
(§3) 6. Add 100 μl of diluted lysate to each well. Shake at room temperature for 60 min.
(§4) 7. Wash plates as described in 4, above.
8. Add 120 μl TBS to ELISA plate containing captured EGFR.
9. Dilute test compound 1:10 in TBS in 96-well polypropylene plates (ie. 10 μl compound+90 μl TBS).
10. Add 13.5 μl diluted test compound to ELISA plate.
(§5) 11. Incubate for 30 minutes while shaking at room temperature.
13. After 5 minutes, stop reaction by adding 16.5 μl of 200 mM EDTA (pH 8.0) to each well, shaking continuously. After the EDTA has been added, shake for 1 min.
(§6) 14. Wash 4× with deionized water, twice with TBST.
15. Add 100 μl anti-phosphotyrosine (1:3000 dilution.in TBST) per well. Incubate 30-45 min. at room temperature, with shaking.
(§7) 16. Wash as described in 4, above.
17. Add 100 μl Biosource Goat anti-rabbit IgG peroxidase conjugate (1:2000 dilution in TBST) to each well. Incubate 30 min. at room temperature, with shaking.
(§8) 18. Wash as described in 4, above.
(§9) 19. Add 100 μl of ABTS/H2O2 solution to each well.
20. Incubate 5 to 10 minutes with shaking. Remove any bubbles.
(§10) 21. If necessary stop reaction with the addition of 100 μl 0.2 M HCl per well.
22. Read assay on Dynatech MR7000 ELISA reader. Test Filter: 410 nM Reference Filter: 630 nM

In another test the target is T1, PDGFR (Homo sapiens, UniProt P09619).
T1 construct: expressed in transfected cells; host or cells: NIH 3T3
T1 sequence (P09619 33-1106, species assumed): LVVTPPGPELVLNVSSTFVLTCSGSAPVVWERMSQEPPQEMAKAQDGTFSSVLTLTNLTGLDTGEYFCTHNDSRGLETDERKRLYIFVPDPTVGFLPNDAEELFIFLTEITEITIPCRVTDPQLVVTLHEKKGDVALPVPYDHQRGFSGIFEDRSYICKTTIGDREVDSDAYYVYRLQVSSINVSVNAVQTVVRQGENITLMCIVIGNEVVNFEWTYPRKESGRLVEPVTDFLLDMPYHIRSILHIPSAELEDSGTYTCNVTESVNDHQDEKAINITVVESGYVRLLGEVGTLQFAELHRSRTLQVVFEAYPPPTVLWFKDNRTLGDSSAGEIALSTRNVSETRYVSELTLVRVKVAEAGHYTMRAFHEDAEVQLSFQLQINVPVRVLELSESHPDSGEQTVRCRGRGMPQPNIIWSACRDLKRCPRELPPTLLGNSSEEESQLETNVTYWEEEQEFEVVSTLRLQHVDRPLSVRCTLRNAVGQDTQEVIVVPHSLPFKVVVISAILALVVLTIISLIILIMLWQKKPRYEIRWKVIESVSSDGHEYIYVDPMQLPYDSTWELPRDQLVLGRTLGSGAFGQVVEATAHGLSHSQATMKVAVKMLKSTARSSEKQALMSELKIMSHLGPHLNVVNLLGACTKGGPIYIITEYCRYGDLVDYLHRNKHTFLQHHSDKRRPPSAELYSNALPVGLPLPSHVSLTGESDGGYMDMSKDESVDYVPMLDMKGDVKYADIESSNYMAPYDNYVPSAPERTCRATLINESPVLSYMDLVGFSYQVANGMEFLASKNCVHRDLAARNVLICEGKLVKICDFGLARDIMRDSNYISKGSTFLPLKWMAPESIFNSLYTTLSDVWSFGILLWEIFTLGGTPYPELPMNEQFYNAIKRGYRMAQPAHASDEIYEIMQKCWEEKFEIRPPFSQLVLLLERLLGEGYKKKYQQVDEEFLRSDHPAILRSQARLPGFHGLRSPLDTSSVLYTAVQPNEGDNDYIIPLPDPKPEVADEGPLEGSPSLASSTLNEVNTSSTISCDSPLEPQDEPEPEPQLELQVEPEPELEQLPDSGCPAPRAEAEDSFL
As to the kind of experiment: Biochemical PDGFR assay (bio PDGFR), ELISA. The conditions noted are these: 50% inhibition of target PTK activity; read-out: bio PDGFR IC50. Here is the method:
This assay measures the in vitro kinase activity of PDGFR using ELISA.
6. PDGFR-β expressing NIH 3T3 cell lysate (Screening Lab, SUGEN, Inc.).
1. Coat Corning 96 well ELISA plates with 0.5 μg 28D4C10 in 100 μl PBS per well, store overnight at 4° C.
2. Remove unbound 28D4C10 from wells by inverting plate to remove liquid. Wash 1× with dH2O. Pat the plate on a paper towel to remove excess liquid.
as §1, §2
5. Dilute lysate in HNTG (10 μg lysate/100 μl HNTG)
as §3, §4
8. Add 80 μl working kinase buffer mix to ELISA plate containing captured PDGFR.
10. Add 10 μl diluted test compound to ELISA plate.
as §5
12. Add 10 μl ATP directly to all wells except negative control well (final well volume should be approximately 100 μl with 20 μM ATP in each well.) Incubate 30 minutes while shaking.
13. After 30 minutes, stop reaction by adding 10 μl of 200 mM EDTA (pH 8.0) to each well.
as §6
15. Add 100 μl anti-phosphotyrosine (1:3000 dilution in TBST) per well. Incubate 30-45 min. at room temperature, with shaking.
as §7
17. […] Incubate 30 min. at room temperature, with shaking.
as §8, §9
20. Incubate 10 to 30 minutes with shaking. Remove any bubbles.
as §10
For orientation: An ELISA detects its analyte on a solid surface through an enzyme-linked reagent.

In another test the target is T2, src protein kinase (Gallus gallus, UniProt P00523).
T2 construct: made in house; host or cells: Schizosaccharomyces pombe strain SP200
Briefly: Biochemical src assay (bio SRC). As to bio SRC, outcome of primary assay: key: DNH = did not hit in primary assay. As to the method:
This assay is used to determine src protein kinase activity measuring phosphorylation of a biotinylated peptide as the readout.
a. Yeast transformed with src (Sugen, Inc., Redwood City, Calif.).
1. Coat ELISA plate with 0.5 μg/well anti-src mab in 100 μl of pH 9.6 sodium carbonate buffer; hold at 4° C. overnight.
2. Wash wells once with PBS.
3. Block plate with 0.15 ml 5% milk in PBS for 30 min. at room temperature.
4. Wash plate 5× with PBS.
5. Add 10 μg/well of src transformed yeast lysates diluted in Lysis Buffer (0.1 ml total volume per well). (Amount of lysate may vary between batches.) Shake plate for 20 minutes at room temperature.
1. 4G10 plate: coat 0.5 μg/well 4G10 in 100 μl PBS overnight at 4° C. and block with 150 μl of 5% milk in PBS for 30 minutes at room temperature.
1. Remove unbound proteins.from plates and wash plates 5× with PBS.
2. Add 0.08 ml Kinase Reaction Mixture per well (containing 10 μl of 10×-Kinase Buffer and 10 μM (final concentration) biotin-EEEYEEYEEEYEEEYEEEY per well diluted in water.
3. Add 10 μl of compound diluted in water containing 10% DMSO and pre-incubate for 15 minutes at room temperature.
4. Start kinase reaction by adding 10 μl/well of 0.05 mM ATP in water (5 μM ATP final).
5. Shake ELISA plate for 15 min. at room temperature.
6. Stop kinase reaction by adding 10 μl of 0.5 M EDTA per well.
7. Transfer 90 μl supernatant to a blocked 4G10 coated ELISA plate.
8. Incubate for 30 min. while shaking at room temperature.
9. Wash plate 5× with TBST.
10. Incubate with Vectastain ELITE ABC reagent (100 μl/well) for 30 min. at room temperature.
11. Wash the wells 5× with TBST.
12. Develop with Turbo TMB.

The target in another test is T3, IGF-1 receptor (Homo sapiens, UniProt P08069).
T3 construct: expressed in transfected cells; host or cells: NIH3T3/IGF-1R
T3 sequence (P08069 31-1367): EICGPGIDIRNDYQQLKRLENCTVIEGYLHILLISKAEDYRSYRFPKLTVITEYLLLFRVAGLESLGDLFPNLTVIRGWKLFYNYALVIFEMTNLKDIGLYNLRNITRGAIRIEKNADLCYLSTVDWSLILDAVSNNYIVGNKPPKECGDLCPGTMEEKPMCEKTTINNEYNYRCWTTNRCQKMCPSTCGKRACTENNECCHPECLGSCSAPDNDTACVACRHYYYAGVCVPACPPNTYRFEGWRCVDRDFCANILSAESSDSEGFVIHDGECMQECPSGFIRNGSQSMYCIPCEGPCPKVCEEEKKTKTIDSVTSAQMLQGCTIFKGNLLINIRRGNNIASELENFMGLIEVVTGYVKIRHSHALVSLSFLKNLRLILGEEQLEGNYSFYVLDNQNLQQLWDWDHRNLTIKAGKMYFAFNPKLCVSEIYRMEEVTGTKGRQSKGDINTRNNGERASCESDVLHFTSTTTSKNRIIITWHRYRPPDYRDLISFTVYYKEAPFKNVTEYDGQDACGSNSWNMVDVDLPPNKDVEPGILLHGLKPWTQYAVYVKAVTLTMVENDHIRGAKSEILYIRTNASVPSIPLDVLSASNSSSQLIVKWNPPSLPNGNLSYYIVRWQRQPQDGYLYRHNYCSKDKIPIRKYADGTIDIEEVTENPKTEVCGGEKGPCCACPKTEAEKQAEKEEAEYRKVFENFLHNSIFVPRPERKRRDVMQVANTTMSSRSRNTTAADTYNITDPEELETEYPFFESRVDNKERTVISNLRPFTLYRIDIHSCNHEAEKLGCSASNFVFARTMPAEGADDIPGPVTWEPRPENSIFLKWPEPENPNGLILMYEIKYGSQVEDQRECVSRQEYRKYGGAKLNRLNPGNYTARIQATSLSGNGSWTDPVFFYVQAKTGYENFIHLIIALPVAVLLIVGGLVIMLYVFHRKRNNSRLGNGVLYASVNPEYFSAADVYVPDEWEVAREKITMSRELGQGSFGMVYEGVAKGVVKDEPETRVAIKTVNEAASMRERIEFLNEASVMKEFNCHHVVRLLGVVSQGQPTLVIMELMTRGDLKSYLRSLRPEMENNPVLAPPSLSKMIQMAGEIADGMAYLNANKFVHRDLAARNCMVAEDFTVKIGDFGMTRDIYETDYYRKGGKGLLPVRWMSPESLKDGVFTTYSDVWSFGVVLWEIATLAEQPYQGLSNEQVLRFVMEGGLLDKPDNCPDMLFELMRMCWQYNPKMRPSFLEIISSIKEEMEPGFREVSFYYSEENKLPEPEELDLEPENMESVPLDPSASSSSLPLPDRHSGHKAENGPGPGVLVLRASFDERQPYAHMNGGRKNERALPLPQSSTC
As to the kind of experiment: Cellular IGF-1 receptor assay (cell IGF). As to cell IGF, outcome of primary assay: key: DNH = did not hit in primary assay. In kind it is cell-based. Here is the method: The following protocol may be used to measure phosphotyrosine level on IGF-1 receptor, which indicates IGF-1 receptor tyrosine kinase activity.
a. The cell line used in this assay is 3T3/IGF-1R, a cell line genetically engineered to overexpresses IGF-1 receptor.
2. […] Incubate for 1 day then replace medium to serum-free medium (90/μl) and incubate in 5% CO2 and 37° C. overnight.
2. Remove the coating solution, and replace with 100 μl Blocking Buffer, and shake for 30 minutes. Remove the blocking buffer and wash the plate just before adding lysate.
1. The drugs are tested under serum-free condition.
2. Dilute drug stock (in 100% DMSO) 1:10 with DMEM in 96-well poly-propylene plate, and transfer 10 μl/well of this solution to the cells to achieve final drug dilution 1:100, and final DMSO concentration of 1.0%. Incubate the cells in 5% CO2 at 37° C. for 2 hours.
3. Prepare fresh cell lysis buffer (HNTG*)
4. After drug incubation for two hours, transfer 10 μl/well of 200 nM IGF-1 Ligand in PBS to the cells (Final Conc. is 20 nM), and incubate at 5% CO2 at 37° C. for 10 minutes.
5. Remove media and add 100 μl/well HNTG* and shake for 10 minutes. Look at cells under microscope to see if they are adequately lysed.
6. Use a 12-channel pipette to scrape the cells from the plate, and homogenize the lysate by repeated aspiration and dispensing. Transfer all the lysate to the antibody coated ELISA plate, and shake for 1 hour.
7. Remove the lysate, wash the plate, transfer anti-pTyr (1:3,000 with TBST) 100 μl/well, and shake for 30 minutes.
8. Remove anti-pTyr, wash the plate, transfer TAGO (1:3,000 with TBST) 100 μl/well, and shake for 30 minutes.
9. Remove detection antibody, wash the plate, and transfer fresh ABTS/H2O2 (1.2 μl H2O2 to 10 ml ABTS) 100 μl/well to the plate to start color development.
10. Measure OD at 410 nm with a reference wavelength of 630 nm in Dynatec MR5000.

Chain of Pyk2 (Q14289 whole entry, species assumed): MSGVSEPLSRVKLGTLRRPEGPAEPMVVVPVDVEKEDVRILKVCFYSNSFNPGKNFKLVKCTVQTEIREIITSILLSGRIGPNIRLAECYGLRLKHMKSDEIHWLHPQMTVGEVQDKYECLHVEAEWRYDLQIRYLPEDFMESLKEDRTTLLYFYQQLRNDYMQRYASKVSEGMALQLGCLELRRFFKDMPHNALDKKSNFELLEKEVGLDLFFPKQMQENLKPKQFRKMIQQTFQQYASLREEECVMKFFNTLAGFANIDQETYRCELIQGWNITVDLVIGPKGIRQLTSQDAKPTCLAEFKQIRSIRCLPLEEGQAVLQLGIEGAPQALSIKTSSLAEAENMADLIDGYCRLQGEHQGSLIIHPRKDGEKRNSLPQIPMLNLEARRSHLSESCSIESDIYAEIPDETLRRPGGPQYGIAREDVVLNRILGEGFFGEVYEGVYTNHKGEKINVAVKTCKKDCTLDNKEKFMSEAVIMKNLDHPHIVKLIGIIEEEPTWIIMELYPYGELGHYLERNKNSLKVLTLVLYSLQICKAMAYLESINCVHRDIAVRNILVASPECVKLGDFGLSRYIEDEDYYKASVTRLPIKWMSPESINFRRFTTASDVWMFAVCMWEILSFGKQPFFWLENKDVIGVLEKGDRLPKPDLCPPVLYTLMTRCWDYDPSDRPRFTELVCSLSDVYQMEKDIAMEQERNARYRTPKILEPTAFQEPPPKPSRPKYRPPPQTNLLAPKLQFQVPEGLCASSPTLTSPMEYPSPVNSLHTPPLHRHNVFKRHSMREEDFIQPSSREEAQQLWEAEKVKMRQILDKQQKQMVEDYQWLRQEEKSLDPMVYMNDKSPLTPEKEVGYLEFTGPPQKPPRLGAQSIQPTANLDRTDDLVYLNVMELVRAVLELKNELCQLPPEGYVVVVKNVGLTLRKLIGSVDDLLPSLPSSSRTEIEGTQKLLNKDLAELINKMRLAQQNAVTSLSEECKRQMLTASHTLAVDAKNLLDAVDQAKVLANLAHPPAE

On to `COc1ccc2c(c1)/C(=C1\C(=O)Nc3ccccc31)CC2` [Compound 4, 3-(6-Methoxyindan-1-ylidene)-1,3-dihydroindol-2-one], for which the “Pyk2, outcome of primary assay” value on Pyk2 (primary assay) is “DNH”. Further, the IC50 on EGFR and at PDGFR was over 100 µM in each case. Further, the “bio SRC, outcome of primary assay” value on src protein kinase (primary assay) is given as “DNH”. In addition, the “cell IGF, outcome of primary assay” value at IGF-1 receptor (primary assay) was “DNH”.

For the compound `Nc1ccc2c(c1)CC/C2=C1/C(=O)Nc2ccccc21` [Compound 6, 3-(5-Aminoindan-1-ylidene)-1,3-dihydroindol-2-one], the half-maximal inhibitory concentration (IC50) was 8.1 µM at Pyk2 (50% inhibition of target PTK activity, read-out: Pyk2 IC50); over 100 µM at EGFR; 5.5 µM at PDGFR; over 100 µM against src protein kinase (50% inhibition of target PTK activity). For the same compound, the “cell IGF % Inh” value at IGF-1 receptor (concentration not given) came out at 96.7% Inh.

A word on the IC50: it is the concentration that gives 50% inhibition.
